Target: T1, full length human Scyl1 (1-808) protein (Homo sapiens, UniProt Q96KG9)
T1 construct: The target enzyme used was the full length human Scyl1 (1-808) protein
T1 sequence (Q96KG9 1-808): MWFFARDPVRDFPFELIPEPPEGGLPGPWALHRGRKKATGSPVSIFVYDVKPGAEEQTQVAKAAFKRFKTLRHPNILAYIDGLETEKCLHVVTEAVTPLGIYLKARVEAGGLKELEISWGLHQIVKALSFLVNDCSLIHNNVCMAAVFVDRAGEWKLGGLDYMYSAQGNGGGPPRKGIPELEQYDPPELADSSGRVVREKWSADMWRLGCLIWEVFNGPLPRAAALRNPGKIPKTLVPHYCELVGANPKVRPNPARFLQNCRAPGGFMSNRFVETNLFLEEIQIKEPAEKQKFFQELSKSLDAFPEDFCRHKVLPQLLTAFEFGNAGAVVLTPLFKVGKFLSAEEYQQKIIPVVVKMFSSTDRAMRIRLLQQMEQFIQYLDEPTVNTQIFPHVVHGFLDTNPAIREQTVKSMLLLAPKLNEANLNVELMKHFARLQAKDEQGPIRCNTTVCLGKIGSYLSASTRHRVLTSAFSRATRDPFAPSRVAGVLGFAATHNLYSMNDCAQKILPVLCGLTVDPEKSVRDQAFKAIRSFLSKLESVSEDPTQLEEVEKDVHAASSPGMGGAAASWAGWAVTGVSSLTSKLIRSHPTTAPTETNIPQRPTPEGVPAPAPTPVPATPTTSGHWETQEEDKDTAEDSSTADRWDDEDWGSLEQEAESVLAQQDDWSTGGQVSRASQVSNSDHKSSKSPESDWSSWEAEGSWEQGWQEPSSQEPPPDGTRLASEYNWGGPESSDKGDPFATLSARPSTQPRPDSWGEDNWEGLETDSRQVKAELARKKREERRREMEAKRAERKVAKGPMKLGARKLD
Test: SCYL1 reporter probe displacement assay
Format: binding
Description: The reporter displacement assay is based on reporter probe (PRO16, Proteros GmbH) that is designed to bind to ATP-binding site of SCYL1 (Methods in Enzymology, 2011, vol. 493, p. 300-319). The proximity between reporter probe and target protein (SCYL1) results in the emission of an optical signal. Test compounds that bind to the same site as the reporter probe displace the probe, causing signal diminution. The rate of reporter probe displacement is measured over time after addition of test compounds at various concentrations.
For Kd determination, percent reporter probe displacement values are calculated for the last time point, at which the system has reached equilibrium. For each compound concentration percent probe displacement values are calculated and plotted against the compound concentration. IC50-like values (corresponding to 50% probe displacement) are calculated using standard fitting algorithms. […] Thus, according to the Cheng Prusoff equation, the Kd value of test compounds can be calculated with Kd = ½ IC50. […]
Probe displacement was calculated in relation to the C+(positive) and C-(negative) controls. The signal reflecting 0% probe displacement (C+) was measured in the absence of test compound, while the signal representing 100% probe displacement (C-) was measured in the absence of Scyl1. […]

## COc1cc(-c2ccc3ncc(-c4cccnc4)n3n2)cc(OC)c1OC [compound 10, 3-(3-pyridyl)-6-(3,4,5-trimethoxyphenyl)imidazo[1,2-b]pyridazine]
Scyl1 probe displacement
  IC50: 500 nM
Probe displacement, primary screen
  Inh.: 100%

Source: patent EP2818471A1, “Nitrogen bicyclic compounds as inhibitors for Scyl1 and Grk5” (Max-Planck-Gesellschaft zur Förderung der Wissenschaften …, priority 2013, dated 2014)
